# Source: patent publication US7091183B1 (Boston Medical Center Corporation, priority 1996, dated 2006)
# Where no end group is shown, it is not given here.
# What was measured:
# rat GIP receptor [1] = target: T1, rat GIP receptor (Rattus norvegicus, UniProt P43219); test: cAMP-dependent β-galactosidase production in LGIPR2 cells (agonist activity); assay type: cell-based
# T1 construct: expressed in transfected cells; host or cells: L cells (LGIPR2), also carrying a VIP-promoter/lacZ cAMP reporter
# T1 sequence (P43219 19-455): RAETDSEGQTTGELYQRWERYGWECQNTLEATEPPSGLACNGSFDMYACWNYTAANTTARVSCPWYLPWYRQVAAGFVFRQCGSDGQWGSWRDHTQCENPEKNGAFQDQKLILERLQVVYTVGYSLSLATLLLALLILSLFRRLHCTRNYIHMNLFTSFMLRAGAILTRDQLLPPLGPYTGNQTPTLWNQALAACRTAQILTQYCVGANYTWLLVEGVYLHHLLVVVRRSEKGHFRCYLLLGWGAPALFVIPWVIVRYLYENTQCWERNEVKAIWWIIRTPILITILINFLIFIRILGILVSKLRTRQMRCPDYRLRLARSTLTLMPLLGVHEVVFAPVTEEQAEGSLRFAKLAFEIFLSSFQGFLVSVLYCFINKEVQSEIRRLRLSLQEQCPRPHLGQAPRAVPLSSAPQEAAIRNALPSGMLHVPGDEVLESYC
# Text: LGIPR2 cells are stably transfected with a cAMP-dependent promoter from the VIP gene fused to the bacterial lac Z gene. When intracellular cAMP increases within these cells, lac Z gene transcription is activated, resulting in the accumulation of its product, β-galactosidase. The measurement of β-galactosidase in this system provided a convenient, inexpensive, and nonradioactive method for detecting changes in the levels of intracellular cAMP. […] The medium was then removed and wells rinsed once with phosphate-buffered saline (PBS). The plates were then blotted briefly and frozen overnight at −70° C., and, after the addition of chlorophenol red-β-D-galactopyranoside, accumulated β-galactosidase was detected using a calorimetric assay, as described previously (Usdin, et al., 1993, Endocrinology, 133:2861–2870). […] Natl. Acad. Sci. USA, 90:1992–1996).
# rat GIP receptor [2] = target: T1, rat GIP receptor; test: Inhibition of GIP (1–42)-stimulated cAMP-dependent β-galactosidase production in LGIPR2 cells; assay type: cell-based
# Procedure: LGIPR2 cells are stably transfected with a cAMP-dependent promoter from the VIP gene fused to the bacterial lac Z gene. When intracellular cAMP increases within these cells, lac Z gene transcription is activated, resulting in the accumulation of its product, β-galactosidase. The measurement of β-galactosidase in this system provided a convenient, inexpensive, and nonradioactive method for detecting changes in the levels of intracellular cAMP.
# LGIPR2 cells were grown in Dulbecco's Modified Eagle's Medium (DMEM) containing 4.5 g/L of glucose and 10% fetal calf serum. For each assay, 10^5 cells/well were seeded onto 24-well plates. After incubation overnight, peptides were added in various concentrations to the wells in the absence of 3-isobutyl-methylxanthine (IBMX) for 4 h, at which time maximal stimulation of β-galactosidase was determined. The medium was then removed and wells rinsed once with phosphate-buffered saline (PBS). The plates were then blotted briefly and frozen overnight at −70° C., and, after the addition of chlorophenol red-β-D-galactopyranoside, accumulated β-galactosidase was detected using a calorimetric assay, as described previously (Usdin, et al., 1993, Endocrinology, 133:2861–2870).
# Values are expressed as the mean±SE of quadruplicate measurements.
# fasted anesthetized rats = test: Intravenous infusion of peptides in fasting anesthetized rats, plasma insulin; assay type: in vivo, rat
# conscious trained rats = test: Postprandial plasma insulin, serum glucose and GLP-1 in trained conscious fed rats; assay type: in vivo, rat; conditions: for postprandial plasma insulin concentration: chow 30 min
# Procedure: Postprandial plasma insulin and serum glucose levels were studied in conscious trained rats. […] To avoid such a response, rats were trained for 10 d before experimentation. They were fasted from 17:00 to 08:00, and 0.9% NaCl (0.3 ml) was injected subcutaneously at 08:00 before feeding. After the injection of 0.9% NaCl, animals were given rat chow for 30 min, after which it was removed. At the end of ten days, the rats were accustomed to the injection and ate quickly (consuming 4–6 g of rat chow within 30 min).
# On the day of the experiment, after fasting from 17:00 the night before, trained rats were injected subcutaneously at 08:00 with 0.3 ml of either 0.9% NaCl or ANTGIP (SEQ ID NO:8) (100 nmol/kg). This dose was chosen to approximately the amount of peptide used in the anesthetized animal studies of Example 3. After injection, six of the fasted control rats were killed to obtain baseline serum glucose and insulin levels. ANTGIP (SEQ ID NO:8)- or 0.9% NaCl-treated rats (n=6 in each group) were exposed to chow for 30 min, after which food was withdrawn.
# rats = test: Oral glucose tolerance test in rats; assay type: in vivo, rat; conditions: ANTGIP 300 ng/kg i.p., glucose 1 g per kg by gavage
# Procedure: Oral glucose tolerance tests were performed on rats injected intraperitoneally with ANTGIP (SEQ ID NO:8) (300 ng/kg) or 0.9% saline solution. After the intraperitoneal injection of 0.9% NaCl or ANTGIP (SEQ ID NO:8), an oral glucose tolerance test was performed. The test was done by administering a 40% glucose solution by oral gavage at a dose of 1 g per kg. The volume administered to each rat was approximately 0.5 ml. Blood was obtained at various time points for subsequent measurement of plasma insulin and glucose levels.
# [3] = tested on: jejunal test segment of anesthetized rats; test: Intestinal glucose absorption from perfused jejunal segment; assay type: in vivo, rat; conditions: ANTGIP 10 nmol/kg i.v. single injection, 30 minute perfusion
# Procedure: Male Sprague-Dawley rats weighing about 200–250 g are fasted overnight and anesthetized using intraperitoneal urethane (about 1.25 g per kg body weight). After midline laparotomy, an about 30-cm segment of jejunum, starting at about 5 cm distal to the ligament of Treitz, is isolated and flushed with approximately 20 ml of about 0.9% NaCl. The jejunal test segments are each perfused twice, initially with control buffer and then once again with control buffer or with the test solution. The test solution consists of Kres-Ringer-bicarbonate buffer containing about 5 mmol/L [^14C]D-glucose, and ^3H-labeled polyethylene glycol is included in the luminal perfusate to correct for fluid movement. The test or control solution is perfused through the jejunal segment without recirculation at a flow rate of about 1.6 ml/min, using a Harvard PHD 2000 syringe pump (Harvard Apparatus, Millis, Mass.). The effluent from the luminal segment is collected at about 5-min intervals for about 30 min. After the initial period of perfusion, the luminal contents in the jejunum are flushed with about 20 ml of about 0.9% NaCl prior to the initiation of the second period of perfusion.
# Data points are believed to represent the rate of glucose disappearance from the luminal perfusate corrected for fluid movement. Results are expressed as the mean±SE of five experiments. […]
# [4] = 20 min, ANTGIP 100 nmol/kg s.c.
# [5] = 40 min, ANTGIP 100 nmol/kg s.c.
substance,measurement,setting,value
"ISDYSIAMDKIRQQDFVNWLLAQK-NH2 [ANTGIP, GIP (7–30)-NH2]",stimulation of cAMP-dependent β-galactosidase production (versus GIP (1–42) / above control levels),"rat GIP receptor [1]; 10^−8 M peptide, 4 h",none
same,increase in cAMP-dependent β-galactosidase level,rat GIP receptor [1]; concentration as high as 10^−4 M,did not stimulate a detectable increase
same,IC50,rat GIP receptor [2],100 nM
same,antagonism of the cAMP stimulatory effect of GIP (1–42),"rat GIP receptor [2]; 10^−8 M GIP (1–42) plus fragment at 10^−8 M or 10^−6 M, 4 h",attenuate the cAMP stimulatory effects
same,"change in the insulin response to GLP-1, glucose or arginine",fasted anesthetized rats; ANTGIP 100 nmol/kg concomitantly,No significant change
same,effect on the insulinotropic properties of GIP,fasted anesthetized rats; ANTGIP 100 nmol/kg concomitantly with GIP 1.5 nmol/kg,completely abolished
same,"effect on insulin secretion, alone","fasted anesthetized rats; ANTGIP infusion alone, 30 min",had no effect on insulin secretion
same,postprandial serum GLP-1 level,conscious trained rats; [4],290 ± 10 pg/mL
same,postprandial plasma insulin concentration,conscious trained rats; [4],25.3±4.7 μIU/ml
same,postprandial serum GLP-1 concentration,conscious trained rats; [5],330±20 pg/mgl
same,postprandial plasma insulin concentration,conscious trained rats; [5],27.1±2.6 μIU/ml
same,postprandial serum glucose concentration versus saline,conscious trained rats; ANTGIP 100 nmol/kg s.c.,similar
same,decrease in postprandial insulin release,conscious trained rats; chow-fed rats,72%
same,plasma glucose after oral glucose versus control rats,rats,diminished at all time points
same,plasma insulin levels after oral glucose,rats,reduced plasma insulin levels
same,absorption of D-glucose from the jejunal test segment,[3],significantly reduce
